{
  "source": "ChEMBL document CHEMBL1201862",
  "about": "“PubChem BioAssay data set” (2004)",
  "key": {"[1]": {"molecular_target": "Intestinal-type alkaline phosphatase (Mus musculus, UniProt P24822)", "sequence (P24822 whole entry)": "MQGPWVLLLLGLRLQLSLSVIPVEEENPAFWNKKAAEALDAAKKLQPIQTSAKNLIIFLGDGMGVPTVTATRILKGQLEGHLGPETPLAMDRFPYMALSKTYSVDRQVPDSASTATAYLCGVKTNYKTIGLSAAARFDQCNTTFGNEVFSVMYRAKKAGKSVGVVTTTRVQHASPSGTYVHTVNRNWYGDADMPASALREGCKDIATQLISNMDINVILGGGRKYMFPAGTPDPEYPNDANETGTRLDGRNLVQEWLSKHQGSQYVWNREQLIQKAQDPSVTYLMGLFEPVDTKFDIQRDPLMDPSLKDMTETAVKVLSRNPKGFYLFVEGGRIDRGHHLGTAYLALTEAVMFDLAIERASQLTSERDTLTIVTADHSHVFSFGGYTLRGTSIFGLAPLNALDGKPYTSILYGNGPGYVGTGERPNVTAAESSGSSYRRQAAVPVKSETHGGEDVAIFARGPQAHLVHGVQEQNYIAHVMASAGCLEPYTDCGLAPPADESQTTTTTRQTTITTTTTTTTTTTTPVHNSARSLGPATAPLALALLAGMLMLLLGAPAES", "assay": "PubChem AID 488874", "type": "functional"}, "[2]": {"molecular_target": "T1, Intestinal-type alkaline phosphatase (Homo sapiens, UniProt P09923)", "T1 sequence (P09923 whole entry)": "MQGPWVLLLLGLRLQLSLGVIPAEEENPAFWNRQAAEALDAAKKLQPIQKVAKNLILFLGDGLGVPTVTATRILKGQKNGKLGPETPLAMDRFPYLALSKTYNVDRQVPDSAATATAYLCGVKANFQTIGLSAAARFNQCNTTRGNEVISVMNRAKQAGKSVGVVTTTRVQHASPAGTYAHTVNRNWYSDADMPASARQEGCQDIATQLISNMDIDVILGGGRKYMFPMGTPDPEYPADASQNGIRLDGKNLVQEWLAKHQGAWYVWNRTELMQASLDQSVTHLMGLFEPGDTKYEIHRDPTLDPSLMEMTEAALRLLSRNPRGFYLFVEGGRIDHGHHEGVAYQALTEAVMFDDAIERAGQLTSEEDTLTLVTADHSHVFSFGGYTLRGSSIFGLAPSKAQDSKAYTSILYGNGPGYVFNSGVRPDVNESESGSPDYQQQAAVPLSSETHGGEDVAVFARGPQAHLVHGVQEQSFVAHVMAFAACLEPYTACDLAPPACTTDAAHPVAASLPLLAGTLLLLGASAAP", "assay": "human intestinal alkaline phosphatase activators, dose response, biochemical, luminescence, uHTS hits (AID 463120)", "type": "functional"}, "[3]": {"molecular_target": "T1, Intestinal-type alkaline phosphatase", "assay": "human IAP activators, dose response, biochemical, luminescent, uHTS hits, set 2 (AID 488817);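 further: potency of activators that raise enzyme activity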", "type": "functional"}, "[4]": {"molecular_target": "T2, Alkaline phosphatase, tissue-nonspecific isozyme (Homo sapiens, UniProt P05186)", "T2 sequence (P05186 whole entry)": "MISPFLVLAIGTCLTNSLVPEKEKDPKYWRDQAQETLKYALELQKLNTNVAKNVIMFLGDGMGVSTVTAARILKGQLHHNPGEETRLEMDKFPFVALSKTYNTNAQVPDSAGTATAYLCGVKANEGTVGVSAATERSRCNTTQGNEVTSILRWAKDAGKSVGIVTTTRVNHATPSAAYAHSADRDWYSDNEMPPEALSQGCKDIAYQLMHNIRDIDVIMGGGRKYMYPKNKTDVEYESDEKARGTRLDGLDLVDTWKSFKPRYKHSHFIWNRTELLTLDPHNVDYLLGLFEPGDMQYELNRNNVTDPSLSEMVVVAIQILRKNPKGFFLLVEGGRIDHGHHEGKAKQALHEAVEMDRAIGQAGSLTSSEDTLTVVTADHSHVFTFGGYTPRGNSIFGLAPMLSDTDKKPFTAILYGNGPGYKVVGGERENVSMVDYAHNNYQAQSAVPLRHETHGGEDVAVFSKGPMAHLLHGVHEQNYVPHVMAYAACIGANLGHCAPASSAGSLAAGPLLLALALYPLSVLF", "assay": "TNAP enzyme activators, dose response, selectivity assay for human IAP activator project, biochemical, TNAP isozyme, human IAP uHTS hits (AID 488886);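 further: potency of compounds raising TNAP activity as a selectivity check on IAP activators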", "type": "functional"}, "H9c2": {"tested_on": "H9c2", "assay": "cells", "type": "functional, cell-based", "details": "Rattus norvegicus, H9c2, Myocardium"}},
  "note": "Active and inactive are the calls of the source.",
  "data": [
    {"smiles": "CCOCCCNC(=O)CCC(=O)NNc1nc2ccccc2c2nc(-c3ccccc3)nn12", "values": [
      {"measurement": "IC50", "setting": "[1]", "value": "29.6 µM (active)"},
      {"measurement": "EC50", "setting": "[2]", "value": "12.6 µM (active)"},
      {"measurement": "EC50", "setting": "[3]", "value": "15.2 µM (active)"},
      {"measurement": "EC50", "setting": "[4]", "value": "17.7 µM (active)"},
      {"measurement": "IC50", "setting": "H9c2", "value": "> 79 µM (inactive)"}
    ]}
  ]
}
